Assays:
[1] = Octanol/buffer partition coefficient by shake flask method; type: physicochemical; details: octanol/buffer (PBS) pH 7.4, shake-flask, 37 °C, HPLC; for logP: octanol/phosphate buffer solution (PBS)
Method: The aqueous phase was replaced by phosphate buffer solution (PBS, pH = 7.4). The assay mixture containing tested compounds was shaken at 37 °C over night and then centrifuged at 2000 rpm for 20 min, followed by the analysis with HPLC. […] Experiments were conducted in triplicate and log p values were calculated.

BChE = BChE (Homo sapiens, UniProt P06276); test: biochemical; details: Ellman method, 30 °C, 25 min, pH 8.0; mean ± SD
Method: (§1) AChE/BChE activity assays were carried out by Ellman method with slight modification. Each compound was dissolved in Tween 80 and diluted with water to various concentrations immediately before use. The assay solution which contained 40 μL AChE/BChE, 100 μL acetylthiocholine iodide/S-butyrylthiocholine iodide, 2.76 ml Na2HPO4/NaH2PO4 buffer (pH 8.0, 0.1 M), and 100 μL tested compound solution with different concentrations were incubated at 30 °C for 25 min. Then, the reaction was terminated with 100 μL 20% sodium dodecylsulphate (SDS), then 100 μL 10 mM […] (DTNB) as chromogenic agent was added into the mixture. […] The IC50 values were calculated by Bliss method and expressed as Mean ± SD of the replicates.

AChE [2] = biological target: T1, AChE (Homo sapiens, UniProt P22303); test: biochemical; details: for IC50: Ellman method, 30 °C, 25 min, pH 8.0, mean ± SD; for Selectivity for AChE, IC50 (BChE)/IC50 (AChE): ratio IC50 (BChE)/IC50 (AChE)
Method: as §1

AChE [3] = biological target: T1, AChE; test: Kinetic study of AChE inhibition (Lineweaver-Burk); type: biochemical
Method: Kinetic characterisation of AChE/BChE was performed by a modified method previous reported. Compound 7a was pre-incubated with the enzyme at 30 °C, then 100 µL acetylthiocholine iodide including five concentrations was added into the assay mixture and kinetic characterisation was conducted spectrometrically at 412 nm. Additionally, the parallel control experiment was made without compound 7a in the mixture.
Compound 7a was selected for kinetic studies. The linear Lineweaver–Burk equation of the Michaelis–Menten was applied to evaluate the inhibition profile. The analysis of the steady-state inhibition data of compound 7a was shown in Supplement data: Table 2.

BChE, sequence (P06276 29-602): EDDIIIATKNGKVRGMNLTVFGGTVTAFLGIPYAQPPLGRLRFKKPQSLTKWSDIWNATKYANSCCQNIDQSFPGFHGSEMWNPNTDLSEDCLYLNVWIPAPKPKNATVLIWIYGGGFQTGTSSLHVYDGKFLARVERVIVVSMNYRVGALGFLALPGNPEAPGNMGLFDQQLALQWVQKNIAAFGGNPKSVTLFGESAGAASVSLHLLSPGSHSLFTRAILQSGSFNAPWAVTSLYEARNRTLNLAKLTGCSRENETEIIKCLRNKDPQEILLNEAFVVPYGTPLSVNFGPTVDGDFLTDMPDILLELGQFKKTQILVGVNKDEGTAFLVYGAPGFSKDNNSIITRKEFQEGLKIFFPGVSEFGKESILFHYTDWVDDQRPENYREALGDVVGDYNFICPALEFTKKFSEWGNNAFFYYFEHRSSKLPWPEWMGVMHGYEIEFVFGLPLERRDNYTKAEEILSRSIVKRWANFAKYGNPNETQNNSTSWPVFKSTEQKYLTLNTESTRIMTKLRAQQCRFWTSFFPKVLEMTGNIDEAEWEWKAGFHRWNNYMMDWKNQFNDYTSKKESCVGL
T1 sequence (P22303 32-614): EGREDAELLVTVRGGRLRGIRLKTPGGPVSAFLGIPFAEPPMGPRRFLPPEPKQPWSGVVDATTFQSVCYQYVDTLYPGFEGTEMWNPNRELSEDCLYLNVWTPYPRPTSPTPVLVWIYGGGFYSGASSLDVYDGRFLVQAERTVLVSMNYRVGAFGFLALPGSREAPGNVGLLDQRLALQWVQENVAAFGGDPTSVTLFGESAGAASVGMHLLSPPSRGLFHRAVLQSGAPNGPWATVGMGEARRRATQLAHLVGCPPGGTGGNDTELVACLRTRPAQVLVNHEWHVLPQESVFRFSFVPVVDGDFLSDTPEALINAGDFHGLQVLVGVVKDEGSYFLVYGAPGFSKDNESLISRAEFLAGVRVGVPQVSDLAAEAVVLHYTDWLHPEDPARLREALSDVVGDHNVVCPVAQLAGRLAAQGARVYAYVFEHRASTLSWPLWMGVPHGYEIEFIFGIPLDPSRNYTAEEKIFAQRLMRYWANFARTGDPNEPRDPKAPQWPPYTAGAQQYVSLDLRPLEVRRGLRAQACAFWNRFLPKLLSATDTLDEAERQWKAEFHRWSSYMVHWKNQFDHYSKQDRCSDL

Compound | logP [1] | IC50 (BChE) [µM] | IC50 (AChE [2]) [µM] | Selectivity for AChE, IC50 (BChE)/IC50 (AChE) (AChE [2]) | Vmax (AChE [3]; AChE, 0.85 µM compound 7a) | Vmax (AChE [3]; AChE, 1.70 µM compound 7a) | Vmax (AChE [3]; AChE, 3.41 µM compound 7a) | non-competitive constant (Ki') (AChE [3]; AChE, Lineweaver-Burk analysis) [µM] | Ki (AChE [3]; AChE, Lineweaver-Burk analysis, read-out: competitive inhibition constant (Ki)) [µM] | type of inhibition against AChE (AChE [3]; Lineweaver-Burk analysis) | Log p [1]
CN(C)CCOc1ccc(NC(=O)c2cccnc2)cc1 [Compound 7d] | 1.33 | 246.5 ± 1.85 | 5.76 ± 0.41 | 42.80 |  |  |  |  |  |  | 
CN(C)CCOc1ccccc1NC(=O)c1cccnc1 [Compound 7f] | 1.42 | 33.4 ± 1.37 | 75.8 ± 0.84 | 0.441 |  |  |  |  |  |  | 
CN(C)CCOc1cccc(NC(=O)c2ccccc2)c1 [Compound 4b] | 1.18 | 20.9 ± 1.61 | 75.8 ± 4.13 | 0.276 |  |  |  |  |  |  | 
CN(C)CCOc1cccc(NC(=O)c2ccccn2)c1 [Compound 7h] | 1.37 | 35.9 ± 0.94 | 73 ± 3.03 | 0.492 |  |  |  |  |  |  | 
CN(C)CCOc1ccccc1NC(=O)c1ccccn1 [Compound 7i] | 1.18 | 27.4 ± 2.31 | > 500 | <0.0549 |  |  |  |  |  |  | 
CN(C)CCOc1ccccc1NC(=O)c1ccccc1 [Compound 4c] | 1.23 | 18 ± 1 | > 500 | <0.0359 |  |  |  |  |  |  | 
CN(C)CCOc1cccc(NC(=O)c2cccnc2)c1 [Compound 7e] | 1.37 | 22.1 ± 1.01 | 13.2 ± 1.73 | 1.67 |  |  |  |  |  |  | 
CN(C)CCOc1ccc(NC(=O)c2ccncc2)cc1 [Compound 7a] | 1.26 | 247 ± 7.54 | 2.49 ± 0.19 | 99.4 | 0.017 ΔAmin-1 | 0.014 ΔAmin-1 | 0.012 ΔAmin-1 | 3.28 | 4.69 | mixed-type inhibition | 
CN(C)CCOc1ccccc1NC(=O)c1ccncc1 [Compound 7c] | 1.37 | 44.6 ± 1.16 | > 500 | <0.0892 |  |  |  |  |  |  | 
CN(C)CCOc1ccc(NC(=O)c2ccccn2)cc1 [Compound 7g] | 1.14 | 114 ± 7.73 | 4.68 ± 0.3 | 24.4 |  |  |  |  |  |  | 
CN(C)CCOc1cccc(NC(=O)c2ccncc2)c1 [Compound 7b] | 1.31 | 48.6 ± 2.23 | 38.4 ± 2.19 | 1.26 |  |  |  |  |  |  | 
CN(C)CCOc1ccc(NC(=O)c2ccccc2)cc1 [Compound 4a] |  | 143 ± 5.56 | 18.2 ± 1.16 | 7.84 |  |  |  |  |  |  | 1.12

— PMC6009985, “Structure–activity relationship investigation of benzamide and picolinamide derivatives containing dimethylamine side chain as acetylcholinesterase inhibitors” (Journal of Enzyme Inhibition and Medicinal Chemistry, 2017)
